Results reported in ChEMBL document CHEMBL1201862, “PubChem BioAssay data set” (2004).
Active and inactive are the calls of the source. For most assays here, no stated cut-off is given here; in the data, actives have a measured EC50 and inactives only a lower limit.

Experiments:
[1] = target: T1, Mannose-6-phosphate isomerase (Homo sapiens, UniProt P34949); assay: human PMI inhibitors, high substrate, primary screen, biochemical, fluorescence intensity, high mannose 6-phosphate (AID 1220)
T1 sequence (P34949 whole entry): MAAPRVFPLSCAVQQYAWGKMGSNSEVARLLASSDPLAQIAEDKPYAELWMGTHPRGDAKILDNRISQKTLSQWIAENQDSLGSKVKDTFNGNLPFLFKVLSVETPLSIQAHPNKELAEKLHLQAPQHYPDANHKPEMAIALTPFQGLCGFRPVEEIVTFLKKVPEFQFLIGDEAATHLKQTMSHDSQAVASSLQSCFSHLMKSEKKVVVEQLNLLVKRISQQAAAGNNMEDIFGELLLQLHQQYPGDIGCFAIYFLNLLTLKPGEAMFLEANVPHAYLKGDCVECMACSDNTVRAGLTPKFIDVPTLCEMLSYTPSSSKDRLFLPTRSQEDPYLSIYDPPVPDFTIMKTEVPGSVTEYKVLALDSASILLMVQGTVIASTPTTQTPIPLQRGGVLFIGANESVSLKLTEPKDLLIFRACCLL

[2] = Luminescence Cell-Based Dose Response HTS to Identify Inhibitors of 5'UTR Stem-Loop Driven Prion Protein mRNA Translation in H4 Neuroglioblastoma Cells. [Related pubchem assays: 1827 (Project Summary), 1813 (Primary HTS)]; format: functional
[3] = inhibitors of intracellular T. cruzi replication, confirmation, NIH3T3 host cells, beta-gal luminescence (AID 2044); format: functional, cell-based;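 further: intracellular parasites grown in NIH/3T3 mouse fibroblasts as host cells; luminescent beta-galactosidase reporter signal from transgenic T. cruzi replicating inside host cells; inhibitors lower the luminescence signal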
[4] = inhibitors of firefly luciferase expression or activity, dose response, H4 neuroglioma cells, luminescence (AID 1990); format: functional, cell-based
[5] = target: T2, RNA-binding protein pos-1 (Caenorhabditis elegans, UniProt G5EF15); assay: inhibitors of POS-1/mex-3 RNA binding, dose response, biochemical, fluorescence polarization (AID 1964);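 further: purified POS-1 fused to maltose binding protein made in E. coli; potency of compounds blocking POS-1 binding to fluorescent RNA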
T2 sequence (G5EF15 whole entry): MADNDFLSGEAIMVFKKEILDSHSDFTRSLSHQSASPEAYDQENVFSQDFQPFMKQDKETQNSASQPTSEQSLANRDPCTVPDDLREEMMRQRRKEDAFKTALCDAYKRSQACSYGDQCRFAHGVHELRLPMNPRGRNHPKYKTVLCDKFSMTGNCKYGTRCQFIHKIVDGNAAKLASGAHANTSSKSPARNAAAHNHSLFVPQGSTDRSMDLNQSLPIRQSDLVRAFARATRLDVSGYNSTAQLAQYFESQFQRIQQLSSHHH

[6] = target: Induced myeloid leukemia cell differentiation protein Mcl-1 (Homo sapiens, UniProt Q07820); format: functional
Sequence of Induced myeloid leukemia cell differentiation protein Mcl-1 (Q07820 whole entry): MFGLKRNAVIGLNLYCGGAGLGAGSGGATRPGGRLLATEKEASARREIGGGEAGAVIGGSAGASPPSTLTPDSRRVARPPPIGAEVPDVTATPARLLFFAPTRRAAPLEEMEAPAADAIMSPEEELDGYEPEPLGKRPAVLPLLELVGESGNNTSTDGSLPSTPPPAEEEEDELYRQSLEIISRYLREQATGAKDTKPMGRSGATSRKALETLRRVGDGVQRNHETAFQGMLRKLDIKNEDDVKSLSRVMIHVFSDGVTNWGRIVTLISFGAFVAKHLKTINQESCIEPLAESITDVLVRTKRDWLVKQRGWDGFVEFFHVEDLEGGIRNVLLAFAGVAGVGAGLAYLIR

[7] = inhibitors of SNCA 5'UTR-driven reporter translation, confirmation, H4 neuroglioma cells, luminescence (AID 1988); format: functional, cell-based
[8] = target: T3, Replicative DNA helicase DnaB (Mycobacterium tuberculosis, UniProt P9WMR3); assay: DnaB intein splicing inhibitors, dose response, biochemical, cell-free fluorescence (AID 449749); format: functional
T3 sequence (P9WMR3 whole entry): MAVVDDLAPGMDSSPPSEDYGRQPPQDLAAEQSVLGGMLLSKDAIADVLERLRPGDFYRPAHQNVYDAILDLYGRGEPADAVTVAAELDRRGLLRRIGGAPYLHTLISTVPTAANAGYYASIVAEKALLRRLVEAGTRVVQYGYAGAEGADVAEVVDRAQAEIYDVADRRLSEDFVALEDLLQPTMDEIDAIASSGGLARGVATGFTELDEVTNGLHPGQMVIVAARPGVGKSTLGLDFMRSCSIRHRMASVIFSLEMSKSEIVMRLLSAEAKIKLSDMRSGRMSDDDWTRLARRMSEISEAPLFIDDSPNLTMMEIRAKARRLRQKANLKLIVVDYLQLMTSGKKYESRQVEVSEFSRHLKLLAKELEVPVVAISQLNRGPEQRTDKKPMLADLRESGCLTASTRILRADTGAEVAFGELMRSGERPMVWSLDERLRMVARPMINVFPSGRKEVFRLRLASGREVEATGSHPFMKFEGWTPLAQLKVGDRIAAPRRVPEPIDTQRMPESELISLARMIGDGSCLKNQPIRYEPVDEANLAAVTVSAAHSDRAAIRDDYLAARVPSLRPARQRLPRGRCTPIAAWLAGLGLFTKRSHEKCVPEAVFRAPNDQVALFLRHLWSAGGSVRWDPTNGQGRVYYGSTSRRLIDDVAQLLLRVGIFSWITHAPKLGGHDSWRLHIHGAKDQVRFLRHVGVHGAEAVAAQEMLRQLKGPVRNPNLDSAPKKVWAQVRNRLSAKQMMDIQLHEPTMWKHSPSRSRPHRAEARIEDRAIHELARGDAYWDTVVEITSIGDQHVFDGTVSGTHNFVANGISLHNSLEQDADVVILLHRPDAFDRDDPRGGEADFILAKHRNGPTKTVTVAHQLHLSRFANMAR

[9] = target: T4, Zinc finger protein mex-5 (Caenorhabditis elegans, UniProt Q9XUB2); assay: MEX-5/TCR-2 RNA interaction inhibitors, dose response, biochemical, C. elegans, fluorescence polarization (AID 1960)
T4 sequence (Q9XUB2 whole entry): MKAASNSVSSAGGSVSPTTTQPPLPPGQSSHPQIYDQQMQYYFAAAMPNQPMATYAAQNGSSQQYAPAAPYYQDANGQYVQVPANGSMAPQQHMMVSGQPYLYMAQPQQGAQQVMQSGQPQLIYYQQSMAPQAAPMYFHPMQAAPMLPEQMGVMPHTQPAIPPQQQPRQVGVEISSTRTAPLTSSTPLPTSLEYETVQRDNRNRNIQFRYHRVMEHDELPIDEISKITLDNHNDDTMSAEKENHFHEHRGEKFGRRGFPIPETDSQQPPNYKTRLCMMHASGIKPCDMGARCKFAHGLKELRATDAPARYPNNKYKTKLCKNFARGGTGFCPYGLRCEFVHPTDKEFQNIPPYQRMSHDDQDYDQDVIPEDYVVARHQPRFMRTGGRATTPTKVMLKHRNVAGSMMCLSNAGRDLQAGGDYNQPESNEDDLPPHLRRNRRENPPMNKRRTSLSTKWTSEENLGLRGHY

[10] = cytotoxicity toward NIH3T3 fibroblasts, dose response, counter-screen, cell-based, ATP luminescence, mouse fibroblasts (AID 2010); format: functional;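 further: cells exposed to compound for about 90 hours before reading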
Protein RecA = target: T5, Protein RecA (Mycobacterium tuberculosis, UniProt P9WHJ3); assay: Fluorescence Cell-Free Homogeneous Dose Retest to Identify Inhibitors of RecA-Intein Splicing Activity. [Related pubchem assays (depositor defined):AID2097, AID2223, AID489010, AID492950]; format: functional
T5 sequence (P9WHJ3 whole entry): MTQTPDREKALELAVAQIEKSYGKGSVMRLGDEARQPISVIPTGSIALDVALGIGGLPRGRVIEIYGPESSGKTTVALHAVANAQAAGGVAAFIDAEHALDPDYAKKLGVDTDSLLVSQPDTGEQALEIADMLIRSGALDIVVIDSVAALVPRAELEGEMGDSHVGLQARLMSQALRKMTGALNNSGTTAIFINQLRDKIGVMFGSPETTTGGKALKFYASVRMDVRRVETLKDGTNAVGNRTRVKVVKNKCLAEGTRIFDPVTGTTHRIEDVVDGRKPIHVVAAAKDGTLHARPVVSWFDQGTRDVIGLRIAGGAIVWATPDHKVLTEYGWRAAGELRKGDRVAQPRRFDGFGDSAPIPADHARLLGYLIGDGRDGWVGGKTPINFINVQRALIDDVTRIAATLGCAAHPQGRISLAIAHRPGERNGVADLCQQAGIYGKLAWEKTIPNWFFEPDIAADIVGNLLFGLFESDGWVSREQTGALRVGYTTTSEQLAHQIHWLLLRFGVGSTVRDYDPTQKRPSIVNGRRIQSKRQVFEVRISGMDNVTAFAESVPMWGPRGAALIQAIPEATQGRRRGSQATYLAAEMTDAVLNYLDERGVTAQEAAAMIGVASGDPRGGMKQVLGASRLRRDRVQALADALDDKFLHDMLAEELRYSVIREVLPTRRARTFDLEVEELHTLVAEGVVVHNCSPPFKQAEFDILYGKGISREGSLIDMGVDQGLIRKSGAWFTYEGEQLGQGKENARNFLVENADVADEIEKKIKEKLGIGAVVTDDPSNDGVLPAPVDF

Nonstructural protein 1 = Nonstructural protein 1 (Influenza A virus, UniProt Q194T2); format: functional, Influenza A virus (A/California/07/2009(H1N1))
Sequence of Nonstructural protein 1 (Q194T2 whole entry): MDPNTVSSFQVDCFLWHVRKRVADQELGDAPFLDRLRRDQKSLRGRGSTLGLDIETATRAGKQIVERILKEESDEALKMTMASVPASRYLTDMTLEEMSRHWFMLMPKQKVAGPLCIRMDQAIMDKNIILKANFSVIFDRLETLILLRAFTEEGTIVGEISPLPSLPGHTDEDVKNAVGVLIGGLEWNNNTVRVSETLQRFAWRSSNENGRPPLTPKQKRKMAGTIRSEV

[11] = C. albicans growth with fluconazole, confirmation, fluorescence, retest (AID 2467); format: functional, cell-based
BJ [12] = assay: cells; format: functional, cell-based; details: Homo sapiens
Streptococcus = assay: Group A Streptococcus viability loss, dose response, counter-screen for streptokinase expression inhibitor project, luminescence, BacTiterGlo (AID 1915); format: functional, organism-based;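 further: potency for reduction of bacterial viability or growth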
BJ [13] = assay: cytotoxicity toward BJ-TERT fibroblasts, dose response, cell-based, RAS-independent, luminescence (AID 1933); format: functional; details: Homo sapiens
[14] = microbe, parasite or virus in culture; format: functional; details: Mycobacterium tuberculosis
BJ [15] = assay: cytotoxicity toward BJ-TERT-LT-ST fibroblasts, dose response, cell-based, RAS-independent, luminescence (AID 1935); format: functional; details: Homo sapiens;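 further: BJ fibroblasts immortalized with TERT plus LT and ST oncogenes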
[16] = target: T6, Long-chain-fatty-acid--AMP ligase FadD28 (Mycobacterium tuberculosis, UniProt P9WQ59); assay: Fluorescence polarization aasay to screen for inhibitors that compete for the binding of FadD28 to a bisubstrate Measured in Biochemical System Using Plate Reader - 2147-01_Inhibitor_Dose_CherryPick_Activity.; format: functional, Mycobacterium tuberculosis H37Rv
T6 sequence (P9WQ59 whole entry): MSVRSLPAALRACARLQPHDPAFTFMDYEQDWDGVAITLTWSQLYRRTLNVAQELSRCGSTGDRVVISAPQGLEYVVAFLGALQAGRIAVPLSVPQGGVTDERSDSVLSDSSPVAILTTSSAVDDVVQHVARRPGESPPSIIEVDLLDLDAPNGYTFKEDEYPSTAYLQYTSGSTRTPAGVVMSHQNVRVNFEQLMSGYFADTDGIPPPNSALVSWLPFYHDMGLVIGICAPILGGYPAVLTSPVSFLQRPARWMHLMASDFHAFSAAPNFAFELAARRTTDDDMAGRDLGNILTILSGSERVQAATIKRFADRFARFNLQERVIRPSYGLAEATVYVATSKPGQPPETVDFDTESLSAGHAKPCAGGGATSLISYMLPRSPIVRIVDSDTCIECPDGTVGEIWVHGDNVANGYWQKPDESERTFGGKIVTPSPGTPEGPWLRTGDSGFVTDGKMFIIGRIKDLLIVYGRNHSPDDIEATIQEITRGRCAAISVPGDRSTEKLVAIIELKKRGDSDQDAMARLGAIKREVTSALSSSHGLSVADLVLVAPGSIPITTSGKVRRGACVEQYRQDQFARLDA

[17] = cytotoxicity in HEK-293T NF-kB-Luc cells, dose response, cytotoxicity control for B/T-cell NF-kB inhibitor project, cell-based, uHTS hits (AID 489019); format: functional;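 further: IC50 reflects cytotoxicity as loss of cell viability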
[18] = tested on: Streptococcus sp. 'group A'; assay: growth inhibition of control SK(-) GAS strain, dose response, counter-screen for streptokinase expression inhibitor project, luminescence, kanamycin, BacTiterGlo, confirmation (AID 1900); format: functional, organism-based
[19] = cytotoxicity toward DRD oncogenic fibroblasts, dose response, cell-based, non-viral oncogenic, luminescence (AID 1934); format: functional; details: Homo sapiens
Jurkat = assay: antigen receptor-induced NF-kB inhibitors, dose response, Jurkat, luciferase reporter, luminescence, B- and T-cell (AID 489004); format: functional, cell-based; details: Homo sapiens;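 further: NF-kB luciferase reporter Jurkat cells stimulated with PMA plus ionomycin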
Streptokinase A = target: T7, Streptokinase A (Streptococcus pyogenes serotype M1, UniProt P10520); assay: S. pyogenes streptokinase expression inhibitors, potency, dose response, plasminogen activation absorbance, OD405 (AID 1914); format: functional, Streptococcus pyogenes M1 GAS;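 further: secreted streptokinase activity via plasminogen activation per viability signal from cell pellet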
T7 sequence (P10520 whole entry): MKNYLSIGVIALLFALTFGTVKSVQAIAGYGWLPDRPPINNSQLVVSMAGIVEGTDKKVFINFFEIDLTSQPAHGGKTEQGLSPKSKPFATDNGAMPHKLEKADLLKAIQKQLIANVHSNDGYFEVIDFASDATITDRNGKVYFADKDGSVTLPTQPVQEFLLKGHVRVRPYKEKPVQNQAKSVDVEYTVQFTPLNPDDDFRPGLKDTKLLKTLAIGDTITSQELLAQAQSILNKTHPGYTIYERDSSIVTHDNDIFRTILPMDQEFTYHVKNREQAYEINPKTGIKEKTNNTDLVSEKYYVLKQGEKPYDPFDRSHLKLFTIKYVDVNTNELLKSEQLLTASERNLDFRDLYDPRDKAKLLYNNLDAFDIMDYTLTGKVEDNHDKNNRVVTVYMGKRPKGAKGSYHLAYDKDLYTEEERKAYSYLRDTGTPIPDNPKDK

[20] = NIH-3T3 fibroblast cytotoxicity, dose response, cytotoxicity control, cell-based, fluorescence, Alamar Blue, secondary assay (AID 2327); format: functional;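 further: NIH-3T3 mouse fibroblasts cultured with fluconazole at 8 µg/mL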

CN1C=C/C(=C\c2cc[n+](C)c3ccccc23)c2ccccc21
IC50 [1]: > 50 µM (not active)
EC50 [2]: 8.89 µM (active)
EC50 [3]: < 0.1 µM (active)
EC50 [4]: 9.17 µM (active)
EC50 [5]: 65.7 µM (active)
IC50 [6]: 13 µM (active)
EC50 [7]: 6.93 µM (active)
AC50 [8]: 121 µM (active)
EC50 [9]: 40 µM (inconclusive)
EC50 (cells): < 0.004 µM (active)
EC50 [10]: > 60 µM (not active)
EC50 (Protein RecA): 1.48 µM (active)

C[n+]1c(-c2ccccc2)c2cc(N)ccc2c2ccc(N)cc21
IC50 (Nonstructural protein 1): 30.5 µM (active)
EC50 [11]: 0.121 µM (active)
EC50 (BJ [12]): 6.25 µM (active)
EC50 (Streptococcus): 5.67 µM (active)
EC50 (BJ [13]): 3.61 µM (active)
CC50 [14]: > 40 µM (active)
EC50 [2]: 20.1 µM (active)
EC50 (BJ [15]): 10.5 µM (active)
EC50 [3]: < 0.1 µM (active)
AC50 [16]: > 100 µM (inactive)
EC50 [4]: > 120 µM (not active)
IC50 [17]: > 80 µM (inactive)
EC50 [18]: 1.29 µM (active)
EC50 [19]: 7.32 µM (active)
IC50 (Jurkat): > 80 µM (inactive)
EC50 (Streptokinase A): > 150 µM (not active)
EC50 [7]: 9.48 µM (active)
EC50 (cells): 0.011 µM (active)
EC50 [20]: > 160 µM (inconclusive)
EC50 [10]: 12.3 µM (active)
